Measured values from US9694045B2, “Pharmaceutical composition for preventing or treating inflammatory diseases comprising trachelospermi caulis extract and paeonia suffruticosa andrews extract, and method for preparing the same” (SINIL PHARMACEUTICAL CO., LTD., priority 2010, dated 2017).

Columns and labels:
Type in all cases: in vivo
IL-2 = IL-2 production of splenocytes of arthritis-induced mice (ELISA); conditions: positive control group (bucillamine 300 mg/kg oral)
Description: (§1) Bovine type II collagen and adjuvant were separately emulsified, and each emulsion was subcutanesously injected at a dose of 100 μg to the tail. Three weeks later, a booster was achieved by the intraperitoneal injection of 100 μg of bovine type II collagen to induce arthritis. Immediately after the induction, drugs were administered for 21 days and their inhibitory activity against arthritis was measured. The mice were orally administered with suspensions of indomethacin (1 mg/kg), meloxicam (4 mg/kg), bucillamine (300 mg/kg), and the mixture of extracts from Trachelospermi Caulis and Paeonia Suffruticosa Andrews (SI-000902), every day. For comparison, a normal group (arthritis not induced) and a control (administered with vehicle) were employed. The extract mixture (solid extract, soft extract) was dispersed at a concentration of 20, 50, 100, 200 and 400 mg/kg in a 1% carboxymethyl-cellulose sodium solution before the oral administration. Severity of edema was measured in the four feet of each mouse by blind test with the naked eye every three days and evaluated as grades 0 to 4. The spleen was aseptically excised from arthritis-induced mice and used to give a cell suspension. […] The level of the cytokines IFN-γ and IL-2 in the medium was measured using an ELISA kit (R&D systems) to examine the inhibitory effect of the extract mixture on the cytokines.

IFN-γ = IFN-γ production of splenocytes of arthritis-induced mice (ELISA); conditions: positive control group (bucillamine 300 mg/kg oral)
Description: as §1

[1] = test system: splenocytes of arthritis-induced mice; test: Splenocyte proliferation in arthritis-induced mice (BrdU ELISA); conditions: Mus musculus, positive control group (bucillamine 300 mg/kg oral)
Description: Bovine type II collagen and adjuvant were separately emulsified, and each emulsion was subcutanesously injected at a dose of 100 μg to the tail. Three weeks later, a booster was achieved by the intraperitoneal injection of 100 μg of bovine type II collagen to induce arthritis. Immediately after the induction, drugs were administered for 21 days and their inhibitory activity against arthritis was measured. The mice were orally administered with suspensions of indomethacin (1 mg/kg), meloxicam (4 mg/kg), bucillamine (300 mg/kg), and the mixture of extracts from Trachelospermi Caulis and Paeonia Suffruticosa Andrews (SI-000902), every day. For comparison, a normal group (arthritis not induced) and a control (administered with vehicle) were employed. The extract mixture (solid extract, soft extract) was dispersed at a concentration of 20, 50, 100, 200 and 400 mg/kg in a 1% carboxymethyl-cellulose sodium solution before the oral administration. Severity of edema was measured in the four feet of each mouse by blind test with the naked eye every three days and evaluated as grades 0 to 4. The spleen was aseptically excised from arthritis-induced mice, minced and filtered through a filter to separate and collect only the cells. […] After incubation, the cells were fixed, and suppressive activity against splenocyte proliferation was determined using a BrdU ELISA cell proliferation assay kit (Roche).

## CC(C)(S)C(=O)N[C@@H](CS)C(=O)O [bucillamine]
IL-2
  suppression of IL-2: 39.1%
IFN-γ
  suppression of IFN-γ: 88.5%
[1]
  inhibition at 300 mg/kg: 51.1%
